Paper PMC10649961, “Novel Mitochondria-Targeted Amphiphilic Aminophosphonium Salts and Lipids Nanoparticles: Synthesis, Antitumor Activity and Toxicity” (Nanomaterials, 2023)
Read-outs that look alike come from different tables or passages of the source.

Columns and labels:
[1] = system: Bacillus cereus ATCC 10702 NCTC 8035; test: Antimicrobial activity, serial microdilutions, Bc; format: cell-based; conditions: Bacillus cereus; for MIC: Bc, read-out: Minimum Inhibitory Concentration (MIC); for MBC: read-out: Minimum bactericidal and fungicidal concentrations (MBC, MFC)
Description: (§1) The antimicrobial activity of test compounds was determined by serial microdilutions in 96-well plates using Mueller-Hinton broth for bacterial culture and Sabouraud broth for yeast culture. Cultures of Gram-positive bacteria were used in the experiment: Staphylococcus aureus ATCC 6538 P FDA 209P, Bacillus cereus ATCC 10702 NCTC 8035, Enterococcus faecalis ATCC 29212; Gram-negative bacteria: Escherichia coli ATCC 25922, Pseudomonas aeruginosa ATCC 9027; and yeast: Candida albicans ATCC 10231, purchased from the State Collection of Pathogenic Microorganisms and Cell Cultures “SCPM-Obolensk” (Obolensk, Russia). Methicillin-resistant strains of S. aureus (MRSA) were isolated from patients with chronic tonsillitis (MRSA-1) and sinusitis (MRSA-2) in the bacteriological laboratory of the Republican Clinical Hospital (Kazan, Russia). The experiments were carried out in triplicate.

[2] = system: Pseudomonas aeruginosa ATCC 9027; test: Antimicrobial activity, serial microdilutions, Pa; format: cell-based; parameters: key to Minimum Inhibitory Concentration (MIC) / Minimum bactericidal and fungicidal concentrations (MBC, MFC): – means non-active; conditions: for MBC / MIC: Pseudomonas aeruginosa; for MBC: ATCC9027, read-out: Minimum bactericidal and fungicidal concentrations (MBC, MFC); for MIC: ATCC9027, read-out: Minimum Inhibitory Concentration (MIC)
Description: as §1

MCF-7 [3] = system: MCF-7
[4] = system: Staphylococcus aureus ATCC 6538 P FDA 209P; test: Antimicrobial activity, serial microdilutions, Sa; format: cell-based; conditions: Staphylococcus aureus; for MIC: read-out: Minimum Inhibitory Concentration (MIC); for MBC: read-out: Minimum bactericidal and fungicidal concentrations (MBC, MFC)
Description: as §1

MCF-7 [5] = test: cells; conditions: Homo sapiens, MCF7, 48 h, read-out: Cytotoxic Effects (IC50)
A549 [6] = conditions: reference normal cell line not marked at the place (ns cells)
Hep G2 [7] = test: cells; conditions: Homo sapiens, HepG2, 48 h, read-out: Cytotoxic Effects (IC50)
PC3 [8] = system: PC3
T98G [9] = test: cells; conditions: Homo sapiens, 48 h, read-out: Cytotoxic Effects (IC50)
[10] = system: Enterococcus faecalis ATCC 29212; test: Antimicrobial activity, serial microdilutions, Ef; format: cell-based; conditions: Enterococcus faecalis; for MIC: ATCC29212, read-out: Minimum Inhibitory Concentration (MIC); for MBC: ATCC29212, read-out: Minimum bactericidal and fungicidal concentrations (MBC, MFC)
Description: as §1

[11] = system: Candida albicans ATCC 10231; test: Antimicrobial activity, serial microdilutions, Ca; format: cell-based; parameters: key to Minimum Inhibitory Concentration (MIC) / Minimum bactericidal and fungicidal concentrations (MBC, MFC): – means non-active; conditions: for MIC: read-out: Minimum Inhibitory Concentration (MIC)
Description: as §1

SK-OV-3 [12] = conditions: reference normal cell line not marked at the place (ns cells)
M-HeLa [13] = test: cells; conditions: Homo sapiens, 48 h, read-out: Cytotoxic Effects (IC50)
A549 [14] = test: cells; conditions: Homo sapiens, A549, 48 h, read-out: Cytotoxic Effects (IC50)
Hep G2 [15] = system: Hep G2
[16] = system: Escherichia coli ATCC 25922; test: Antimicrobial activity, serial microdilutions, Ec; format: cell-based; conditions: Escherichia coli; for MIC: ATCC25922, read-out: Minimum Inhibitory Concentration (MIC); for MBC: ATCC25922, read-out: Minimum bactericidal and fungicidal concentrations (MBC, MFC)
Description: as §1

DU-145 [17] = test: cells; conditions: Homo sapiens, DU-145, 48 h, read-out: Cytotoxic Effects (IC50), DU-145, MTT assay, 48 h
PC3 [18] = test: cells; conditions: Homo sapiens, PC-3, 48 h, read-out: Cytotoxic Effects (IC50), PC3, MTT assay, 48 h
HuTu 80 [19] = test: cells; conditions: Homo sapiens, HuTu80, 48 h, read-out: Cytotoxic Effects (IC50)
SK-OV-3 [20] = test: cells; conditions: Homo sapiens, SK-OV-3, 48 h, read-out: Cytotoxic Effects (IC50)
PANC-1 [21] = test: cells; conditions: Homo sapiens, PANC-1, 48 h, read-out: Cytotoxic Effects (IC50)
MRSA-1 = test: Antimicrobial activity, serial microdilutions, MRSA-1; format: cell-based, S. aureus; conditions: Staphylococcus aureus; for MIC: read-out: Minimum Inhibitory Concentration (MIC); for MBC: read-out: Minimum bactericidal and fungicidal concentrations (MBC, MFC)
Description: as §1

M-HeLa [22] = system: M-HeLa
T98G [23] = system: T98G
DU-145 [24] = system: DU-145
PANC-1 [25] = system: PANC-1
HuTu 80 [26] = system: HuTu 80
MRSA-2 = test: Antimicrobial activity, serial microdilutions, MRSA-2; format: cell-based, S. aureus; conditions: Staphylococcus aureus; for MIC: read-out: Minimum Inhibitory Concentration (MIC); for MBC: read-out: Minimum bactericidal and fungicidal concentrations (MBC, MFC)
Description: as §1

[27] = calculated relative to the cell line Chang liver (b)
[28] = reference normal cell line not marked at the place (ns cells)
[29] = calculated relative to the cell line WI38 (a)

| Compound | MIC [1] [µM] | MBC [1] [µM] | MBC [2] [µM] | MIC [4] [µM] | MBC [4] [µM] | IC50 (MCF-7 [5]) [nM] | selectivity index (SI) (A549 [6]) | IC50 (Hep G2 [7]) [nM] | IC50 (T98G [9]) [nM] | MIC [10] [µM] | MBC [10] [µM] | selectivity index (SI) (SK-OV-3 [12]) | IC50 (M-HeLa [13]) [nM] | IC50 (A549 [14]) [µM] | MIC [16] [µM] | MBC [16] [µM] | IC50 (DU-145 [17]) [nM] | IC50 (PC3 [18]) [nM] | IC50 (HuTu 80 [19]) [nM] | IC50 (SK-OV-3 [20]) [µM] | other results |
| --- | --- | --- | --- | --- | --- | --- | --- | --- | --- | --- | --- | --- | --- | --- | --- | --- | --- | --- | --- | --- | --- |
| CCCCCCCCC[P+](c1ccccc1)(N(CC)CC)N(CC)CC [5c, Bis(diethylamino)(nonyl)(phenyl)phosphonium iodide] | 3.9 ± 0.3 | 500 ± 48 | > 500 | 3.9 ± 0.3 | 125 ± 10 | 3100 ± 200 | ns (ns—no selectivity) | 2300 ± 100 | 2700 ± 300 | 31.3 ± 2.2 | 500 ± 48 | ns (ns—no selectivity) | 1700 ± 100 | 8.7 ± 0.7 | 250 ± 19 | 500 ± 48 | 900 ± 70 | 10000 ± 900 | 2800 ± 300 | 14.8 ± 1.2 | Minimum Inhibitory Concentration (MIC) [2]: –; selectivity index (SI) (MCF-7 [3]; [27]): 1.3; selectivity index (SI) (PC3 [8]; [28]): ns (ns—no selectivity); Minimum Inhibitory Concentration (MIC) ([11]; Ca): –; Minimum bactericidal and fungicidal concentrations (MBC, MFC) ([11]; Ca): –; selectivity index (SI) (Hep G2 [15]; [27]): 1.8; IC50 (PANC-1 [21]): 2800 ± 200 nM; MIC (MRSA-1): 3.9 ± 0.3 µM; MBC (MRSA-1): 62.5 ± 5.5 µM; selectivity index (SI) (M-HeLa [22]; [27]): 2.4; selectivity index (SI) (T98G [23]; [27]): 1.5; selectivity index (SI) (DU-145 [24]; [27]): 4.6; selectivity index (SI) (PANC-1 [25]; [27]): 1.5; selectivity index (SI) (HuTu 80 [26]; [27]): 1.5; MIC (MRSA-2): 3.9 ± 0.4 µM; MBC (MRSA-2): 62.5 ± 5.4 µM |
| CCCCCCCCCC[P+](c1ccccc1)(N(CC)CC)N(CC)CC [5d, Decylbis(diethylamino)(phenyl)phosphonium iodide] | 0.9 ± 0.08 | 500 ± 47 | 500 ± 47 | 0.9 ± 0.07 | 125 ± 9 | 700 ± 60 | ns (ns—no selectivity) | 1100 ± 90 | 700 ± 50 | 15.6 ± 1.2 | 125 ± 9 | ns (ns—no selectivity) | 1500 ± 100 | 8.9 ± 0.7 | 62.5 ± 5.4 | 62.5 ± 5.3 | 450 ± 30 | 800 ± 60 | 2500 ± 100 | 10 ± 0.8 | MIC [2]: 500 ± 48 µM; selectivity index (SI) (MCF-7 [3]; [27]): 1.9; selectivity index (SI) (PC3 [8]; [27]): 1.6; Minimum bactericidal and fungicidal concentrations (MBC, MFC) ([11]; Ca): –; MIC ([11]; Candida albicans, ATCC10231): 250 ± 21 µM; selectivity index (SI) (Hep G2 [15]; [27]): 1.2; IC50 (PANC-1 [21]): 1400 ± 100 nM; MIC (MRSA-1): 0.9 ± 0.08 µM; MBC (MRSA-1): 125 ± 11 µM; selectivity index (SI) (M-HeLa [22]; [28]): ns (ns—no selectivity); selectivity index (SI) (T98G [23]; [27]): 1.9; selectivity index (SI) (DU-145 [24]; [27]): 2.9; selectivity index (SI) (PANC-1 [25]; [28]): ns (ns—no selectivity); selectivity index (SI) (HuTu 80 [26]; [28]): ns (ns—no selectivity); MIC (MRSA-2): 0.9 ± 0.08 µM; MBC (MRSA-2): 62.5 ± 5.2 µM |
| CCCCCCCCCC[P+](c1ccccc1)(c1ccccc1)N(CC)CC [6d, Decyl(diethylamino)diphenylphosphonium iodide] | 0.9 ± 0.08 | 250 ± 21 | 125 ± 9 | 0.9 ± 0.08 | 62.5 ± 5.4 | 1600 ± 100 | ns (ns—no selectivity) | 1300 ± 100 | 600 ± 50 | 3.9 ± 0.3 | 250 ± 19 | ns (ns—no selectivity) | 240 ± 20 | 8.2 ± 0.7 | 62.5 ± 5.3 | 62.5 ± 5.5 | 430 ± 30 | 1400 ± 100 | 350 ± 20 | 3.9 ± 0.4 | MIC [2]: 125 ± 10 µM; selectivity index (SI) (MCF-7 [3]; [28]): ns (ns—no selectivity); selectivity index (SI) (PC3 [8]; [28]): ns (ns—no selectivity); MIC ([11]; Candida albicans, ATCC10231): 62.5 ± 5.4 µM; MBC ([11]; Candida albicans, ATCC10231, read-out: Minimum bactericidal and fungicidal concentrations (MBC, MFC)): 250 ± 19 µM; selectivity index (SI) (Hep G2 [15]; [28]): ns (ns—no selectivity); IC50 (PANC-1 [21]): 400 ± 30 nM; MIC (MRSA-1): 0.5 ± 0.03 µM; MBC (MRSA-1): 0.9 ± 0.07 µM; selectivity index (SI) (M-HeLa [22]; [29]): 1.6; selectivity index (SI) (T98G [23]; [28]): ns (ns—no selectivity); selectivity index (SI) (DU-145 [24]; [29]): 1.0; selectivity index (SI) (PANC-1 [25]; [29]): 1.0; selectivity index (SI) (HuTu 80 [26]; [29]): 1.1; MIC (MRSA-2): 0.5 ± 0.03 µM; MBC (MRSA-2): 0.9 ± 0.08 µM |
